These compounds were tested against T1, human capsaicin receptor (Homo sapiens, UniProt Q8NER1) (assay: Calcium mobilization assay, determination of antagonist activity (Example 6)). Conditions: Table II; IC50 determined as described in Example 6.
T1 construct: pBK-CMV expression construct encoding the full length human capsaicin receptor; expressed in transfected cells
Format: cell-based
In short: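 HEK293 clonal lines stably expressing full-length human capsaicin receptor, loaded with Fluo-3 AM in KRH buffer pH 7.4, 1–2 h at 37 °C. Compounds (1–5 μM final) preincubated 0.5–6 h at room temperature, then capsaicin at its EC50 added. FLIPR/Fluoroskan calcium signal; IC50 as 50% decrease of capsaicin response.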

T1 sequence (Q8NER1 whole entry): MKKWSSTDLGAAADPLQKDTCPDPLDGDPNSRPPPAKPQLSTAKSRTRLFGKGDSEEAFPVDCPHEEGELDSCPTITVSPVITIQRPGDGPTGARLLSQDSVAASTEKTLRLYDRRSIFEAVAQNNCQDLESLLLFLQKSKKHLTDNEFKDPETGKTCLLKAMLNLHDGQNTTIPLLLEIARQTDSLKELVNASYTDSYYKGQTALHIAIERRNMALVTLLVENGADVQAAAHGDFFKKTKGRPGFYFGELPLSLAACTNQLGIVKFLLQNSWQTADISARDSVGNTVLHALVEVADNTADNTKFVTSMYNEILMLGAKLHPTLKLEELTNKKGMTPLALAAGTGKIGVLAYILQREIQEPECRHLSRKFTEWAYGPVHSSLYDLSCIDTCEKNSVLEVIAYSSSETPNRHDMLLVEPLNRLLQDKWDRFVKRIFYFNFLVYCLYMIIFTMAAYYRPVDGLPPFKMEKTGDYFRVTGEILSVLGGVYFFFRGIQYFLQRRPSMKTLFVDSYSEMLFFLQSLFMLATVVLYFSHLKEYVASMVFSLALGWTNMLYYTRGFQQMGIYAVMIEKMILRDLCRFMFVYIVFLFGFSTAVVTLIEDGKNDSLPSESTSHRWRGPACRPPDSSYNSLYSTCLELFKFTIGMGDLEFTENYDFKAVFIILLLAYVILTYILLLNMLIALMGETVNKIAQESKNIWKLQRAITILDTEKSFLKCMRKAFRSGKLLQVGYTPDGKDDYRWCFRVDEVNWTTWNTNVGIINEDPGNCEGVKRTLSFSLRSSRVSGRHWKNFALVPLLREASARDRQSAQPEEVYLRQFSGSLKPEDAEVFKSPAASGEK

Row | Structure (SMILES) | IC50 [µM]
1 | Fc1ccc(-c2cc(N3CCN(c4ncccc4C(F)(F)F)CC3)nc(OCCN3CCCC3)n2)cc1Cl [Example 558, 4-(3-chloro-4-fluorophenyl)-2-(2-pyrrolidin-1-ylethoxy)-6-{4-[3-(trifluoromethyl)pyridin-2-yf]piperazin-1-yl}pyrimidine] | ≤ 1
2 | Fc1ccc(-c2nc(N3CCOCC3)nc(N3CCN(c4ccccn4)CC3)n2)c(F)c1 [Example 423, 2-(2,4-difluorophenyl)-4-morpholin-4-yl-6-(4-pyridin-2-ylpiperazin-1-yl)-1,3,5-triazine] | ≤ 1
3 | Cc1ccc(-c2cc(N3CCN(c4ncccc4Cl)C[C@H]3C)nc(N3CCOCC3)n2)cc1C [Example 508, 4-[4-[(2R)-4-(3-chloropyridin-2-yl)-2-methylpiperazin-1-yl]-6-(3,4-dimethylphenyl)pyrimidin-2-yl]morpholine] | ≤ 1
4 | CN1CCC(N(C)c2nc(-c3ccc(F)c(Cl)c3)cc(N3CCN(c4ncccc4C(F)(F)F)CC3)n2)CC1 [Example 565] | ≤ 1
5 | C=CCN1CCN(c2nc(-c3cccc(C)c3)nc(N3CCN(c4ncccc4C(F)(F)F)CC3)n2)CC1 [Example 453, 2-(4-allylpiperazin-1-yl)-4-(3-methylphenyl)-6-{4-[3-(trifluoromethyl)pyridin-2-yl]piperazin-1-yl}-1,3,5-triazine] | ≤ 1
6 | CCN(CC)C1CCN(c2nc(-c3ccc(F)c(Cl)c3)cc(N3CCN(c4ncccc4C(F)(F)F)CC3)n2)CC1 [Example 563, 1-(4-(3-chloro-4-fluorophenyl)-6-{4-[3-(trifluoromethyl)pyridin-2-yl]piperazin-1-yl}pyrimidin-2-yl)-N,N-diethylpiperidin-4-amine] | ≤ 1
7 | CCOc1cccc(-c2cc(N3CCN(c4ncccc4C)C[C@H]3C)nc(N3CCOCC3)n2)c1 [Example 529, 4-{4-(3-ethoxyphenyl)-6-[(2R)-2-methyl-4-(3-methylpyridin-2-yl)piperazin-1-yl]pyrimidin-2-yl}morpholine] | ≤ 1

Same assay, conditions: Table II; determined as described in Example 6 (antagonist activity); "*" = 1 micromolar or less

Row | Structure (SMILES) | IC50 [µM]
8 | CC(=O)c1ccc(-c2cc(N3CCN(c4ncccc4Cl)C[C@H]3C)nc(N3CCCC3C)n2)cc1 (some centres unmarked) [Example 857, 1-{4-[6-[4-(3-chloropyridin-2-yl)-2-methylpiperazin-1-yl]-2-(2-methylpyrrolidin-1-yl)pyrimidin-4-yl]phenyl}ethanone] | ≤ 1
9 | C[C@@H]1CN(c2ncccc2C(F)(F)F)CCN1c1cc(-c2ccc(F)c(F)c2)nc(N2CCCC2)n1 [Example 791, 4-(3,4-difluorophenyl)-6-{(2R)-2-methyl-4-[3-(trifluoromethyl)pyridin-2-yl]piperazin-1-yl}-2-pyrrolidin-1-ylpyrimidine] | ≤ 1
10 | C[C@@H]1CCCN1c1cc(-c2ccc(Cl)c(F)c2)nc(N2CCN(c3nccnc3Cl)C[C@@H]2C)n1 [Example 963, 4-(4-chloro-3-fluorophenyl)-2-[(2S)-4-(3-chloropyrazin-2-yl)-2-methylpiperazin-1-yl]-6-[(2R)-2-methylpyrrolidin-1-yl]pyrimidine] | ≤ 1
11 | Cc1cc(-c2cc(N3CCN(c4ncccc4Cl)C[C@H]3C)nc(N3CCC3C)n2)ccc1F (stereo partly drawn) [Example 785, 4-[(2R)-4-(3-chloropyridin-2-yl)-2-methylpiperazin-1-yl]-6-(4-fluoro-3-methylphenyl)-2-(2-methylazetidin-1-yl)pyrimidine] | ≤ 1
12 | CC1CCCN1c1nc(-c2ccc(F)cc2)cc(N2CCN(c3nccnc3Cl)C[C@H]2C)n1 (some centres unmarked) [Example 926, 4-[4-(3-chloropyrazin-2-yl)-2-methylpiperazin-1-yl]-6-(4-fluorophenyl)-2-(2-methylpyrrolidin-1-yl)pyrimidine] | ≤ 1
13 | CC1CCCN1c1nc(-c2cncc(Cl)c2)cc(N2CCN(c3ncccc3Cl)C[C@H]2C)n1 (some centres unmarked) [Example 807] | ≤ 1
14 | C[C@H]1CN(c2ncccc2Cl)CCN1c1cc(-c2ccc(F)c(F)c2)nc(N2CCOCC2)n1 [Example 923, 4-[4-[(2S)-4-(3-chloropyridin-2-yl)-2-methylpiperazin-1-yl]-6-(3,4-difluorophenyl)pyrimidin-2-yl]morpholine] | ≤ 1
15 | C[C@H]1CN(c2ncccc2Cl)CCN1c1cc(-c2ccc(Cl)c(F)c2)nc(N2CCCC2)n1 [Example 957, 4-(4-chloro-3-fluorophenyl)-6-[(2S)-4-(3-chloropyridin-2-yl)-2-methylpiperazin-1-yl]-2-pyrrolidin-1-ylpyrimidine] | ≤ 1

Same assay, conditions: Table II; determined as described in Example 6; class symbol

Row | Structure (SMILES) | IC50 [µM]
16 | Cc1ccc(C)c(-c2nc(N3CCOCC3)nc(N3CCN(c4ccccn4)CC3)n2)c1 [Example 269, 2-(2,5-dimethylphenyl)-4-morpholin-4-yl-6-(4-pyridin-2-ylpiperazin-1-yl)-1,3,5-triazine] | ≤ 1

Same assay, conditions: determined as described in Example 6 (calcium mobilization, antagonist activity); Table II

Row | Structure (SMILES) | IC50 [µM]
17 | CC(=O)N1CCN(c2nc(-c3ccc(F)c(Cl)c3)cc(N3CCN(c4ncccc4C(F)(F)F)CC3)n2)CC1 [Example 625, 2-(4-acetylpiperazin-1-yl)-4-(3-chloro-4-fluorophenyl)-6-{4-[3-(trifluoromethyl)pyridin-2-yl]piperazin-1-yl}pyrimidine] | ≤ 1
18 | Cc1cccc(-c2cc(N3CCN(c4ncccc4C(F)(F)F)CC3)nc(N3CCCC3C)n2)c1 (centres unmarked) [Example 706, 4-(3-methylphenyl)-2-(2-methylpyrrolidin-1-yl)-6-{4-[3-(trifluoromethyl)pyridin-2-yl]piperazin-1-yl}pyrimidine] | ≤ 1
19 | FC(F)(F)c1cccnc1N1CCN(c2cc(-c3cncc(Cl)c3)nc(N3CCOCC3)n2)CC1 [Example 593, 4-(4-(5-chloropyridin-3-yl)-6-{4-[3-(trifluoromethyl)pyridin-2-yl]piperazin-1-yl}pyrimidin-2-yl)morphotine] | ≤ 1
20 | CC(C)N(C)c1nc(-c2ccc(F)c(Cl)c2)cc(N2CCN(c3ncccc3Cl)CC2)n1 [Example 725, 4-(3-chloro-4-fluorophenyl)-6-[4-(3-chloropyridin-2-yl)piperazin-1-yl]-N-isopropyl-N-methylpyrimidin-2-amine] | ≤ 1
21 | CC(C)n1ccnc1-c1nc(-c2ccc(F)c(Cl)c2)cc(N2CCN(c3ncccc3C(F)(F)F)CC2)n1 [Example 683, 4-(3-chloro-4-fluorophenyl)-2-(1-isopropyl-1H-imidazol-2-yl)-6-{4-[3-(trifluoromethyl)pyridin-2-yl]piperazin-1-yl}pyrim:dine] | ≤ 1
22 | Fc1ccc(-c2cc(N3CCN(c4ncccc4Cl)CC3)nc(SCc3ccccc3)n2)cc1Cl [Example 700, 2-(benzylthio)-4-(3-chloro-4-fluorophenyl)-6-[4-(3-chloropyridin-2-yl)piperazin-1-yl]pyrimidine] | ≤ 1
23 | CC(C)c1nc(-c2ccc(F)c(Cl)c2)cc(N2CCN(c3ncccc3C(F)(F)F)CC2)n1 [Example 605, 4-(3-chloro-4-fluorophenyl)-2-isopropyl-6-{4-[3-(trifluoromethyl)pyridin-2-yl]piperazin-1-yl}pyrimidine] | ≤ 1
24 | Cc1cc(-c2cc(N3CCN(c4ncccc4C(F)(F)F)C[C@H]3C)nc(N3CCCCC3)n2)ccc1F [Example 759, 4-(4-fluoro-3-methylphenyl)-6-{(2R)-2-methyl-4-[3-(trifluoromethyl)pyridin-2-yl]piperazin-1-yl}-2-piperidin-1-ylpyrimidine] | ≤ 1
25 | Cc1cc(-c2cc(N3CCN(c4ncccc4C(F)(F)F)C[C@H]3C)nc(N3C(C)CCC3C)n2)ccc1F (stereo partly drawn) [Example 755, 2-(2,5-dimethylpyrrolidin-1-yl)-4-(4-fluoro-3-methylphenyl)-6-{(2R)-2-methyl-4-[3-(trifluoromethyl)pyridin-2-yl]piperazin-1-yl}pyrimidine] | ≤ 1
26 | Cc1cc(-c2cc(N3CCN(c4ncccc4C(F)(F)F)CC3)nc(N3CCNC(C)C3)n2)ccc1F (centres unmarked) [Example 641, 4-(4-fluoro-3-methylphenyl)-2-(3-methylpiperazin-1-yl)-6-{4-[3-(trifluoromethyl)pyridin-2-yl]piperazin-1-yl}pyrimidine] | ≤ 1
27 | CC1CN(c2nc(-c3ccc(F)c(Cl)c3)cc(N3CCN(c4ncccc4C(F)(F)F)CC3)n2)CCN1 (centres unmarked) [Example 614, 4-(3-chloro-4-fluorophenyl)-2-(3-methylpiperazin-1-yl)-6-{4-[3-(trifluoromethyl)pyridin-2-yl]piperazin-1-yl}pyrimidine] | ≤ 1
28 | CCN(CC)c1nc(-c2ccc(F)c(C)c2)cc(N2CCN(c3ncccc3Cl)CC2)n1 [Example 721, 4-[4-(3-chloropyridin-2-yl)piperazin-1-yl]-N,N-diethyl-6-(4-fluoro-3-methylphenyl)pyrimidin-2-amine] | ≤ 1
29 | Cc1cc(-c2cc(N3CCN(c4ncccc4C(F)(F)F)CC3)nc(N3CCN(S(C)(=O)=O)CC3)n2)ccc1F [Example 688, 4-(4-fluoro-3-methylphenyl)-2-[4-(methylsulfonyl)piperazin-1-yl]-6-{4-[3-(trifluoromethyl)pyridin-2-yl]piperazin-1-yl}pyrimidine] | ≤ 1
30 | Cc1cc(-c2cc(N3CCN(c4ncccc4C(F)(F)F)CC3)nc(N3CCC3(C)C)n2)ccc1F [Example 766, 2-(2,2-dimethylazetidin-1-yl)-4-(4-fluoro-3-methylphenyl)-6-{4-[3-(trifluoromethyl)pyridin-2-yl]piperazin-1-yl}pyrimidine] | ≤ 1
31 | CCC1CCCCN1c1nc(-c2ccc(F)c(Cl)c2)cc(N2CCN(c3ncccc3C(F)(F)F)CC2)n1 (centres unmarked) [Example 613, 4-(3-chloro-4-fluorophenyl)-2-(2-ethylpiperidin-1-yl)-6-{4-[3-(trifluoromethyl)pyridin-2-yl]piperazin-1-yl}pyrimidine] | ≤ 1
32 | O=S(=O)(Cc1ccccc1)c1nc(-c2ccc(F)c(Cl)c2)cc(N2CCN(c3ncccc3Cl)CC2)n1 [Example 701, 2-(benzylsulfonyl)-4-(3-chloro-4-fluorophenyl)-6-[4-(3-chloropyridin-2-yl)piperazin-1-yl]pyrimidine] | ≤ 1
